How the values were obtained:
HepG2 = experiment: Growth inhibition of human HepG2 cells after 48 hrs by MTT assay; type: functional, cell-based; details: HepG2, 48 h
DU-145 = experiment: Growth inhibition of human DU145 cells after 48 hrs by MTT assay; type: functional, cell-based; details: DU-145, 48 h
HEK293 = experiment: Cytotoxicity against HEK293 cells up to 10 uM after 48 hrs by MTT assay; type: cell-based; details: human, hek293, 48 h
A549 = experiment: Growth inhibition of human A549 cells after 48 hrs by MTT assay; type: functional, cell-based; details: A549, 48 h
[1] = target: 3',5'-cyclic-AMP phosphodiesterase 4B (Homo sapiens) (UniProt Q07343); experiment: Inhibition of recombinant His-tagged PDE4B1 (unknown origin) expressed in baculovirus infected sf9 cells at 10 uM using cAMP as substrate preincubated for 15 mins followed by cAMP addition measured after 1 hr by PDE light HTS assay relative to control
3',5'-cyclic-AMP phosphodiesterase 4B (Homo sapiens), sequence (Q07343 whole entry): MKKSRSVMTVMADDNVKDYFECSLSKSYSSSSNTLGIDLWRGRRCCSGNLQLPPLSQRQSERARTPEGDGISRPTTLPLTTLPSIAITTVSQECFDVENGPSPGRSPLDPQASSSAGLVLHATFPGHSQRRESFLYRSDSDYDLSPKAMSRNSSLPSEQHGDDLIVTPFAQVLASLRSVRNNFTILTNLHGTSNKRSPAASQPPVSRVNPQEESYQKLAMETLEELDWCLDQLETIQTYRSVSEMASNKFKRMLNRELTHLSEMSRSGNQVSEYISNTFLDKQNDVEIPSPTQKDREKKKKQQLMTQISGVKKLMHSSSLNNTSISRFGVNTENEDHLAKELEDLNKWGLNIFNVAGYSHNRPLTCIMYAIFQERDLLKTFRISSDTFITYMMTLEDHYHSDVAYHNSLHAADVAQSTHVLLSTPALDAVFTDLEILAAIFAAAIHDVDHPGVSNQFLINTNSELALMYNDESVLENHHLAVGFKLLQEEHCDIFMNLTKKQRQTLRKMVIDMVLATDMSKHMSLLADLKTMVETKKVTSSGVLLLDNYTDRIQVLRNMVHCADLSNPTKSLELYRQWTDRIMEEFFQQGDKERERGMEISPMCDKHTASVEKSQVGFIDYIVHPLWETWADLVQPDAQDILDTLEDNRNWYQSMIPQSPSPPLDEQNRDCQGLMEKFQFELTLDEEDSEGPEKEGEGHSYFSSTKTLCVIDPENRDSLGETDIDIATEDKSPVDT

HeLa = experiment: Growth inhibition of human HeLa cells after 48 hrs by MTT assay; type: functional, cell-based
[2] = target: Prostaglandin G/H synthase 2 (Homo sapiens) (UniProt P35354); experiment: Inhibition of human COX2 expressed in baculovirus infected sf9 microsomes at 10 uM using arachidonic acid as substrate preincubated for 15 mins followed by substrate addition by TMPD oxidation based assay relative to control
Prostaglandin G/H synthase 2 (Homo sapiens), sequence (P35354 whole entry, looked up): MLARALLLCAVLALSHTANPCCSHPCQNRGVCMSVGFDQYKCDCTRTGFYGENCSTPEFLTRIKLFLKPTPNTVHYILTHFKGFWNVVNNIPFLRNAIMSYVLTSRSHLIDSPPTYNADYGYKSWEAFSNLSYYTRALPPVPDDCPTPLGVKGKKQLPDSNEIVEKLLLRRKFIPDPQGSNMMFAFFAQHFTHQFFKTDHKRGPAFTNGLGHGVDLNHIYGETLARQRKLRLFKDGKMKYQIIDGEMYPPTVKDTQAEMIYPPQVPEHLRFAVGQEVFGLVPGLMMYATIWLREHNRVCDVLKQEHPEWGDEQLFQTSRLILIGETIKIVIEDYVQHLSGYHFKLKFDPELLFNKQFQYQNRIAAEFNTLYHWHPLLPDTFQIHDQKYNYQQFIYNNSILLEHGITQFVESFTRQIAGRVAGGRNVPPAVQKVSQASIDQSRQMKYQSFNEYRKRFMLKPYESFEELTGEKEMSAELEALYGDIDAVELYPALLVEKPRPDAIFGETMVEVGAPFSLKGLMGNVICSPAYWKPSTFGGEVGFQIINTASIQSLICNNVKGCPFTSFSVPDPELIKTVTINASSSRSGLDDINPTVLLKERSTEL

SMILES	IC50 (HepG2) [µM]	IC50 (DU-145) [µM]	Activity (HEK293)	IC50 (A549) [µM]	inhibition [1] [%]	IC50 (HeLa) [µM]	inhibition [2] [%]
Cc1ccc(-c2cn(-c3ccc(NS(C)(=O)=O)c(Oc4ccccc4)c3)nn2)cc1	18.3	11.2	Non-Toxic				
CS(=O)(=O)Nc1ccc(-n2cc(COc3ccc([N+](=O)[O-])cc3)nn2)cc1Oc1ccccc1		7.2	Non-Toxic	6.6	70.2		
CS(=O)(=O)Nc1ccc(-n2cc(-c3ccccc3)nn2)cc1Oc1ccccc1	13.6	14.2	Non-Toxic	29.9		21.9	
CS(=O)(=O)Nc1ccc(-n2cc(COc3ccc4ccccc4c3)nn2)cc1Oc1ccccc1	19.5	9.1	Non-Toxic	8.3		12.8	
CS(=O)(=O)Nc1ccc([N+](=O)[O-])cc1Oc1ccccc1 [NIMESULIDE]	35.2			67.8	52		
Cc1cc(OCc2cn(-c3ccc(NS(C)(=O)=O)c(Oc4ccccc4)c3)nn2)ccc1Cl	9.8	5.9	Non-Toxic	6.7	67.5	7.9	
CS(=O)(=O)Nc1ccc(-n2cc(COc3ccccc3Cl)nn2)cc1Oc1ccccc1	25.3	21.1	Non-Toxic	53.8		38.6	
Cc1ccc(OCc2cn(-c3ccc(NS(C)(=O)=O)c(Oc4ccccc4)c3)nn2)cc1	13	8.2	Non-Toxic	8		15.8	
CS(=O)(=O)Nc1ccc(-n2cc(COc3ccc(Cl)cc3)nn2)cc1Oc1ccccc1	7.5	6.4	Non-Toxic	7.1	62.8	7.8	23

Reference: ChEMBL document CHEMBL4041539, “1,2,3-Triazole-nimesulide hybrid: Their design, synthesis and evaluation as potential anticancer agents” (Bioorg Med Chem Lett, 2017)
